Laboratory results reported in the supplement of paper PMC10307832.

Experiments:
Assay in all cases: relative viability (nuclei count vs DMSO), 5 days (fraction); higher = more cells survive
201T = test system: 201T
Summary of the method: (§1)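 Relative viability equals treated-well nuclei counts divided by vehicle-well nuclei counts. Counts came from 4× images of lung cancer cell lines grown in 1536-well plates for 5 days after pin-tool dosing on the day after seeding. Dosing used one drug alone or a fixed anchor-drug dose plus five library-drug doses (not always all listed) in √10 steps, and values are medians of duplicate plates.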

A-427 = test system: A-427
Summary of the method: as §1

COR-L23 = test system: COR-L23
Summary of the method: as §1

HARA = test system: HARA
Summary of the method: as §1

HCC-15 = test system: HCC-15
Summary of the method: as §1

HCC-366 = test system: HCC-366
Summary of the method: as §1

HCC-44 = test system: HCC-44
Summary of the method: as §1

HCC-78 = test system: HCC-78
Summary of the method: as §1

LCLC-103H = test system: LCLC-103H
Summary of the method: as §1

LCLC-97TM1 = test system: LCLC-97TM1
Summary of the method: as §1

LOU-NH91 = test system: LOU-NH91
Summary of the method: as §1

NCI-H1734 = test system: NCI-H1734
Summary of the method: as §1

NCI-H1993 = test system: NCI-H1993
Summary of the method: as §1

NCI-H2009 = test system: NCI-H2009
Summary of the method: as §1

NCI-H2023 = test system: NCI-H2023
Summary of the method: as §1

NCI-H2126 = test system: NCI-H2126
Summary of the method: as §1

NCI-H441 = test system: NCI-H441
Summary of the method: as §1

NCI-H460 = test system: NCI-H460
Summary of the method: as §1

NCI-H650 = test system: NCI-H650
Summary of the method: as §1

RERF-LC-KJ = test system: RERF-LC-KJ
Summary of the method: as §1

SW 1573 = test system: SW 1573
Summary of the method: as §1

`O=C(O)CCCCC(CCSCc1ccccc1)SCc1ccccc1` (centres undefined) [CPI-613] + C[C@]1(O)C[C@@H](c2nc(-c3ccc4ccc(-c5ccccc5)nc4c3)c3c(N)nccn32)C1 [Linsitinib] (partner 1 µM) gave a relative viability (201T; first compound 5 µM) of 0.98, a relative viability (201T; first compound 15.81 µM) of 0.969 and a relative viability (201T; first compound 50 µM) of 1.01. The relative viability (201T; first compound 158.11 µM) was 0.864, the relative viability (201T; first compound 500 µM) was 0.8 and the relative viability (A-427; first compound 5 µM) was 1.1. It also gave a relative viability (A-427; first compound 15.81 µM) of 1.12, a relative viability (A-427; first compound 50 µM) of 1.02 and a relative viability (A-427; first compound 158.11 µM) of 0.847. It also gave a relative viability (A-427; first compound 500 µM) of 0.618, a relative viability (COR-L23; first compound 5 µM) of 0.851 and a relative viability (COR-L23; first compound 15.81 µM) of 0.918. For the same compound, the relative viability (COR-L23; first compound 50 µM) was 0.779, the relative viability (COR-L23; first compound 158.11 µM) was 0.334 and the relative viability (COR-L23; first compound 500 µM) was 0.0236. For the same compound, the relative viability (HARA; first compound 5 µM) was 0.906, the relative viability (HARA; first compound 15.81 µM) was 0.864 and the relative viability (HARA; first compound 50 µM) was 0.991. It also gave a relative viability (HARA; first compound 158.11 µM) of 0.44, a relative viability (HARA; first compound 500 µM) of 0.0277 and a relative viability (HCC-15; first compound 5 µM) of 0.878. It also gave a relative viability (HCC-15; first compound 15.81 µM) of 0.845, a relative viability (HCC-15; first compound 50 µM) of 0.794 and a relative viability (HCC-15; first compound 158.11 µM) of 0.467. The relative viability (HCC-15; first compound 500 µM) was 0.359, the relative viability (HCC-366; first compound 5 µM) was 0.601 and the relative viability (HCC-366; first compound 15.81 µM) was 0.637. The relative viability (HCC-366; first compound 50 µM) was 0.597, the relative viability (HCC-366; first compound 158.11 µM) was 0.587 and the relative viability (HCC-366; first compound 500 µM) was 0.0054. The relative viability (HCC-44; first compound 5 µM) was 0.625, the relative viability (HCC-44; first compound 15.81 µM) was 0.666 and the relative viability (HCC-44; first compound 50 µM) was 0.717. It also gave a relative viability (HCC-44; first compound 158.11 µM) of 0.393, a relative viability (HCC-44; first compound 500 µM) of 0.0377 and a relative viability (HCC-78; first compound 5 µM) of 0.48. It also gave a relative viability (HCC-78; first compound 15.81 µM) of 0.538, a relative viability (HCC-78; first compound 158.11 µM) of 0.573 and a relative viability (HCC-78; first compound 500 µM) of 0.487. For the same compound, the relative viability (LCLC-103H; first compound 5 µM) was 1.11, the relative viability (LCLC-103H; first compound 15.81 µM) was 1.01 and the relative viability (LCLC-103H; first compound 50 µM) was 1.08. For the same compound, the relative viability (LCLC-103H; first compound 158.11 µM) was 1, the relative viability (LCLC-103H; first compound 500 µM) was 0.866 and the relative viability (LCLC-97TM1; first compound 5 µM) was 0.186. The relative viability (LCLC-97TM1; first compound 15.81 µM) was 0.167, the relative viability (LCLC-97TM1; first compound 50 µM) was 0.199 and the relative viability (LCLC-97TM1; first compound 158.11 µM) was 0.16. It also gave a relative viability (LCLC-97TM1; first compound 500 µM) of 0.0574, a relative viability (LOU-NH91; first compound 5 µM) of 0.918 and a relative viability (LOU-NH91; first compound 15.81 µM) of 0.907. For the same compound, the relative viability (LOU-NH91; first compound 50 µM) was 1.06, the relative viability (LOU-NH91; first compound 158.11 µM) was 0.971 and the relative viability (LOU-NH91; first compound 500 µM) was 0.959. For the same compound, the relative viability (NCI-H1734; first compound 5 µM) was 0.93, the relative viability (NCI-H1734; first compound 15.81 µM) was 0.821 and the relative viability (NCI-H1734; first compound 50 µM) was 0.83. It also gave a relative viability (NCI-H1734; first compound 158.11 µM) of 0.69, a relative viability (NCI-H1734; first compound 500 µM) of 0.117 and a relative viability (NCI-H1993; first compound 5 µM) of 0.71. The relative viability (NCI-H1993; first compound 15.81 µM) was 0.671, the relative viability (NCI-H1993; first compound 50 µM) was 0.781 and the relative viability (NCI-H1993; first compound 158.11 µM) was 0.61. The relative viability (NCI-H1993; first compound 500 µM) was 0.432, the relative viability (NCI-H2009; first compound 5 µM) was 1.17 and the relative viability (NCI-H2009; first compound 15.81 µM) was 1.18. For the same compound, the relative viability (NCI-H2009; first compound 50 µM) was 1.18, the relative viability (NCI-H2009; first compound 158.11 µM) was 0.559 and the relative viability (NCI-H2009; first compound 500 µM) was 0.019. The relative viability (NCI-H2023; first compound 5 µM) was 0.614, the relative viability (NCI-H2023; first compound 15.81 µM) was 0.698 and the relative viability (NCI-H2023; first compound 50 µM) was 0.668. For the same compound, the relative viability (NCI-H2023; first compound 158.11 µM) was 0.243, the relative viability (NCI-H2023; first compound 500 µM) was 0.0069 and the relative viability (NCI-H2126; first compound 5 µM) was 0.721. It also gave a relative viability (NCI-H2126; first compound 15.81 µM) of 0.751, a relative viability (NCI-H2126; first compound 50 µM) of 0.712 and a relative viability (NCI-H2126; first compound 158.11 µM) of 0.534. The relative viability (NCI-H2126; first compound 500 µM) was 0.567, the relative viability (NCI-H441; first compound 5 µM) was 0.521 and the relative viability (NCI-H441; first compound 15.81 µM) was 0.59. It also gave a relative viability (NCI-H441; first compound 50 µM) of 0.605, a relative viability (NCI-H441; first compound 158.11 µM) of 0.255 and a relative viability (NCI-H441; first compound 500 µM) of 0.132. For the same compound, the relative viability (NCI-H460; first compound 5 µM) was 0.751, the relative viability (NCI-H460; first compound 15.81 µM) was 0.737 and the relative viability (NCI-H460; first compound 50 µM) was 0.78. For the same compound, the relative viability (NCI-H460; first compound 158.11 µM) was 0.125, the relative viability (NCI-H460; first compound 500 µM) was 0.0075 and the relative viability (NCI-H650; first compound 5 µM) was 0.905. For the same compound, the relative viability (NCI-H650; first compound 15.81 µM) was 0.807, the relative viability (NCI-H650; first compound 50 µM) was 0.975 and the relative viability (NCI-H650; first compound 158.11 µM) was 0.746. It also gave a relative viability (NCI-H650; first compound 500 µM) of 0.747, a relative viability (RERF-LC-KJ; first compound 5 µM) of 0.878 and a relative viability (RERF-LC-KJ; first compound 15.81 µM) of 0.869. The relative viability (RERF-LC-KJ; first compound 50 µM) was 0.887, the relative viability (RERF-LC-KJ; first compound 158.11 µM) was 0.87 and the relative viability (RERF-LC-KJ; first compound 500 µM) was 0.885. For the same compound, the relative viability (SW 1573; first compound 5 µM) was 0.878, the relative viability (SW 1573; first compound 15.81 µM) was 0.751 and the relative viability (SW 1573; first compound 50 µM) was 0.816. For the same compound, the relative viability (SW 1573; first compound 158.11 µM) was 0.625 and the relative viability (SW 1573; first compound 500 µM) was 0.576.
